# Values quoted from earlier work in patent publication US20170348285A1, “TREATMENT OF DRY EYE DISEASE WITH PARASYMPATHETIC & ANTI-SYMPATHETIC AGENTS” (priority 2016, published 2017).
# Experiments:
# [1] = topical 0.05%, treatment for two months
# [2] = topical formulation
# [3] = systemic administration
Compound,floppy iris syndrome (during eye surgery),retrograde ejaculation (in vivo),change in pupil size [1],tear production [1],spasms of accommodation [2],efficacy as treatment of dry eye disease [3]
CCOc1ccccc1OCCN[C@H](C)Cc1ccc(OC)c(S(N)(=O)=O)c1 [tamsulosin],can cause the floppy iris syndrome,can cause retrograde ejaculation,,,,
CC[C@@H]1C(=O)OC[C@@H]1Cc1cncn1C [pilocarpine],,,without any change in pupil size,stimulate tear production,cause spasms of accommodation,effective systemic treatment of dry eye disease
